Experimental findings from ChEMBL document CHEMBL1201862, “PubChem BioAssay data set” (2004) are described below.

Active and inactive are the calls of the source.

The target in assay [1] is Nonstructural protein 1 (Influenza A virus, UniProt Q194T2). In kind it is functional, Influenza A virus (A/California/07/2009(H1N1)).
Assay [2] addresses T1, Rac GTPase-activating protein 1 (Homo sapiens, UniProt Q9H0H5).
T1 sequence (Q9H0H5 whole entry): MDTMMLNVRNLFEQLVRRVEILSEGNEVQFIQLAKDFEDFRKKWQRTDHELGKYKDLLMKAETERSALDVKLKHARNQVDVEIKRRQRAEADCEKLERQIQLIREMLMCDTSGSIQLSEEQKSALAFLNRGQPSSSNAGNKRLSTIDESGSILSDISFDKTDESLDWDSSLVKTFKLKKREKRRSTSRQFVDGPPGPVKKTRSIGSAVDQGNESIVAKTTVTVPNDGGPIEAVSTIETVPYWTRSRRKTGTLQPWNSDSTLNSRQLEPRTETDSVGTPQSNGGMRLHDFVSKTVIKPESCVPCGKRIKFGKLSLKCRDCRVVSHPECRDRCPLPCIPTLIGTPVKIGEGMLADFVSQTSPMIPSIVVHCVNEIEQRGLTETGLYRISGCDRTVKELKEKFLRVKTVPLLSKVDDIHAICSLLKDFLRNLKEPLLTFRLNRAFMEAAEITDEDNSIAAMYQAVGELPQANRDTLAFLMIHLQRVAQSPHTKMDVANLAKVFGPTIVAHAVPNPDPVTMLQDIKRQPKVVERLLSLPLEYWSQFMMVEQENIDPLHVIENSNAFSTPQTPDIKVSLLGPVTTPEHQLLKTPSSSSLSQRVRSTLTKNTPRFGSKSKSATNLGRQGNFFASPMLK
Kind of assay: blockers of MgcRacGAP-driven Rac1 GTP hydrolysis – biochemical, ADP Hunter fluorescence, primary and confirmatory, confirmation (AID 624330). In kind it is functional.

A short description of assay [3]: cells. In kind it is functional, cell-based.
The nature of assay [4]: cells. In kind it is functional, cell-based. This is another data set of the same source.
Assay [5] has as its target T2, Leucine aminopeptidase (Plasmodium falciparum 3D7, UniProt Q8IL11).
T2 sequence (Q8IL11 whole entry): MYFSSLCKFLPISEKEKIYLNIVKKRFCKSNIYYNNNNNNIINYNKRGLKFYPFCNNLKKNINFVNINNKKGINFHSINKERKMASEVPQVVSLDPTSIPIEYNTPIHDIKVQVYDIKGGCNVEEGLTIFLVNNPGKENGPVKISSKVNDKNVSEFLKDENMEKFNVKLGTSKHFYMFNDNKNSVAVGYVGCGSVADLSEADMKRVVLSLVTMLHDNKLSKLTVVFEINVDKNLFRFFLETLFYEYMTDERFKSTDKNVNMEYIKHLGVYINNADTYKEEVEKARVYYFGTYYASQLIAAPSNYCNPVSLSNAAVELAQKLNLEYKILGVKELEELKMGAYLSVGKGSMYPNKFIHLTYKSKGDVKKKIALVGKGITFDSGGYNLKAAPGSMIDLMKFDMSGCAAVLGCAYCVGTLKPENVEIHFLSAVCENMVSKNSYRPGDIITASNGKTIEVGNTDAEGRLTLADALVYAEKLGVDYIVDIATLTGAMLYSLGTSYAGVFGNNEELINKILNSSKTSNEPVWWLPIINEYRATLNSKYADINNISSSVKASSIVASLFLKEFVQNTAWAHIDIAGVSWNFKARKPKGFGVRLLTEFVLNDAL
The assay is described as follows: P. falciparum M17LAP inhibitors, primary screen, biochemical, fluorogenic H-Leu-NHMec substrate, 1536-well (AID 1619). In kind it is functional.

Assay [6] deals with T3, Aminopeptidase N (Plasmodium falciparum FcB1/Columbia, UniProt O96935).
T3 sequence (O96935 whole entry): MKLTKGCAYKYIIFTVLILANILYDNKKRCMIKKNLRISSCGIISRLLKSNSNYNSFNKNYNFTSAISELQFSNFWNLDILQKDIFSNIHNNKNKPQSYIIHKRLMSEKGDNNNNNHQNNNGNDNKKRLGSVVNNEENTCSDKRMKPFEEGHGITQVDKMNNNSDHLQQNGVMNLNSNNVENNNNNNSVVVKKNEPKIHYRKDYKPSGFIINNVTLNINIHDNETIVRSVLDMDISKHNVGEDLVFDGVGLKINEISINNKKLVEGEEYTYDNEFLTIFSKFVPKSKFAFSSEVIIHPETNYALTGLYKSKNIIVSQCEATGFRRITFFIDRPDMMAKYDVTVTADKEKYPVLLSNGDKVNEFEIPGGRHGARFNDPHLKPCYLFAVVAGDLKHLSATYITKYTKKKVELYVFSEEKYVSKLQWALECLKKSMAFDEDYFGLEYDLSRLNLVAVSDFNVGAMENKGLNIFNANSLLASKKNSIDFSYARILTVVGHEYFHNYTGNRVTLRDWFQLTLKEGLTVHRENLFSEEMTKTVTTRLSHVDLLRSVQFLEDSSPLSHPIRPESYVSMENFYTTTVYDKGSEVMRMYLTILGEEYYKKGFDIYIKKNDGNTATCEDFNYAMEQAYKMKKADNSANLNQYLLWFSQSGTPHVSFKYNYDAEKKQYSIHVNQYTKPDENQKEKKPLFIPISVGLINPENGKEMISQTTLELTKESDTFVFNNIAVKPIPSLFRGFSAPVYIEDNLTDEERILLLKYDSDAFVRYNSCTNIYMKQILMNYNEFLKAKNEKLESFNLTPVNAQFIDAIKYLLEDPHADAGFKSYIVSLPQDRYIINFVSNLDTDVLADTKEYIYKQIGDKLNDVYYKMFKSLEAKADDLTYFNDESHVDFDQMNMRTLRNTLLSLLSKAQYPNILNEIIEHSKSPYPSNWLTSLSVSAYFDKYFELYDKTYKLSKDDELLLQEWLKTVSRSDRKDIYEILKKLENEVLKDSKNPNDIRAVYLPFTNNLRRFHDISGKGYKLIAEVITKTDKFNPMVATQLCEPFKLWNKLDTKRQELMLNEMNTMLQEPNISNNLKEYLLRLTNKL
The assay is described as follows: malaria alanyl aminopeptidase activity blockers – biochemical, fluorogenic H-Leu-NHMec substrate, 1536-well (AID 1445). Also on record: species or system Plasmodium falciparum 3D7, 3D7.

For assay [7], the target named is T4, Heat shock factor protein 1 (Mus musculus, UniProt P38532).
T4 sequence (P38532 whole entry): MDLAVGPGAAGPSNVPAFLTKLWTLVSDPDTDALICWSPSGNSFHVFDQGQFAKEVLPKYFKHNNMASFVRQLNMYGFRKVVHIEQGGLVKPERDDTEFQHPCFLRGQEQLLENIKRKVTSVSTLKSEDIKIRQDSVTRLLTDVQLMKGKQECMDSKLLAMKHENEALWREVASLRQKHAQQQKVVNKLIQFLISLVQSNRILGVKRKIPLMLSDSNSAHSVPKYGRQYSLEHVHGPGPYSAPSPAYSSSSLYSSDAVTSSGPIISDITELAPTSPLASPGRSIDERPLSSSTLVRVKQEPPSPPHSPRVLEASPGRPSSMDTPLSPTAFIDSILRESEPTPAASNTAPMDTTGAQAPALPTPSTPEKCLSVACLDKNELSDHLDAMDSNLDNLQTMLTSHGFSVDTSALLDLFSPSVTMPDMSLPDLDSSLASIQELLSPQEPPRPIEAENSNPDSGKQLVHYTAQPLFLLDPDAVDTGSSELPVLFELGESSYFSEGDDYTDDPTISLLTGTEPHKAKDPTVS
The assay is described as follows: decrease of HSF1-responsive luciferase luminescence – cell-based, NIH3T3, dose retest, confirmation (AID 2382).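 Also: NIH3T3 fibroblasts with HSF1-driven luciferase reporter stressed by proteasome inhibitor MG132; luminescence from HSF1-driven luciferase expression after 8 hours of MG132 stress.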 In kind it is functional.

The target of assay [8] is Cytochrome P450 2D6 (Homo sapiens, UniProt P10635).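 Also: CYP2D6 member of a cytochrome P450 panel assay.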
Sequence of Cytochrome P450 2D6 (P10635 whole entry): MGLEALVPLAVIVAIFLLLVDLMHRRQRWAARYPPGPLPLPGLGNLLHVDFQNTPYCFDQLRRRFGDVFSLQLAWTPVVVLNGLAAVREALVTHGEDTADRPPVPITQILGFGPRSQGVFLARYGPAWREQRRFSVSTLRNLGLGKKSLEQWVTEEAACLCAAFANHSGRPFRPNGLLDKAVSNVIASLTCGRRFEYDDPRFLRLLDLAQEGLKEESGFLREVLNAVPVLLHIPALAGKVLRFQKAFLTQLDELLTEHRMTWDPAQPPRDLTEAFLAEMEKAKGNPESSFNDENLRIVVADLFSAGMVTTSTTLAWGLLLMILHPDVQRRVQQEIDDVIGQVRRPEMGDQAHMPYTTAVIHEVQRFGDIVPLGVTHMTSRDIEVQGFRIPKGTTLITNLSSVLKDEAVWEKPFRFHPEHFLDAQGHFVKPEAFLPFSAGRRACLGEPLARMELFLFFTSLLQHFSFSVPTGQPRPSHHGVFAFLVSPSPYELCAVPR

Sequence of Nonstructural protein 1 (Q194T2 whole entry): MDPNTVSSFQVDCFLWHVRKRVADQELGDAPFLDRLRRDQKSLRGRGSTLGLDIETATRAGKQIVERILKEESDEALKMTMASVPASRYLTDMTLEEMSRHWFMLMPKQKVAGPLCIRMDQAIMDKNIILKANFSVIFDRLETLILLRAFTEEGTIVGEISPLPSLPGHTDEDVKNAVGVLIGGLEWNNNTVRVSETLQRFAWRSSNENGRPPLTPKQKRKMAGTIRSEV

In general, IC50 refers to the concentration that gives 50% inhibition. Turning to `O=C(CNCc1ccccn1)N1CCc2ccccc2C1`, the values for the IC50 in assay [1] and in assay [2] were 3.54 µM (active) and 177 µM (active), respectively.

One may read the EC50 as the midpoint of the concentration-response curve. On to `Cc1ccc(CNC(=O)NC2CCCCC2)cc1`, for which the figures for the concentration giving a half-maximal response (EC50) in assay [3] and in assay [4] were > 350 µM (not active) and 55 µM (active), respectively.

With `COc1ccc2ccccc2c1/C=N/Nc1cccc(C(=O)O)c1`, the figures for the EC50 in assay [3] and in assay [4] were > 350 µM (not active) and 16.8 µM (active), respectively.

As for `CCOc1ccc(-c2c(C(=O)N/N=C/c3cccnc3)nnn2-c2nonc2N)cc1`, the EC50 in assay [3] and in assay [4] was > 350 µM (not active) in each case.

Broadly, the AC50 is the concentration giving half of the maximal activity seen. Take `CCCCOc1ccc(CC(=O)NO)cc1` [BUFEXAMAC]: the values for the IC50 in assay [5] and in assay [6] were < 1 µM (active) and 81.2 µM (active), respectively. Besides, in assay [7], the EC50 is > 195 µM (not active). Besides, the AC50 in assay [8] was 10 µM (inconclusive).
